System: phosphorylated PKB (Ser473)
Assay: Western blot of active
Format: cell-based, human
Settings: PANC-1, CFPAC-1 and HPAF-II cell lysates (all three cell lines); 1 μM wortmannin for 10 min prior to lysis

**Q.** `COC[C@H]1OC(=O)c2coc3c2[C@@]1(C)C1=C(C3=O)[C@@H]2CCC(=O)[C@@]2(C)C[C@H]1OC(C)=O` [wortmannin] was tested. Which “amount of phosphorylated Ser473 (pSer473) of PKB by Western blot” value did it give?
**A.** decreased
